The source made the active and inactive calls. The rule behind the calls is not given here.
Assays:
HCT-116 [1] = assay: Induction of apoptosis in human HCT-116 cells assessed as increase in Bax mRNA expression at 5 uM measured for 48 hrs by qRT-PCR analysis; type: functional, cell-based
HCT-116 [2] = assay: Antiproliferative activity against human HCT-116 cells assessed as reduction in cell viability at 5 uM measured after 48 hrs by MTT assay; type: functional, cell-based
[3] = Toxicity in nude mouse xenografted with human HCT-116 cells assessed as change in plasma ALT level at 3 to 4 mg/kg, iv measured for 23 days; type: organism-based; settings: in vivo, 552 h, dose 3-4 mg/kg, time 23 day
HCT-116 [4] = assay: Antitumor activity against human HCT-116 cells xenografted in nude mouse model assessed as increase in p53 protein expression in tumor tissue at 3 to 3.5 mg/kg, iv administered for 23 days by Western blot analysis; type: functional, organism-based; settings: dose 3-3.5 mg/kg, time 23.0 day
HCT-116 [5] = assay: Induction of G2/M phase cell cycle arrest in human HCT-116 cells assessed as decrease in CDK1 protein expression at 2.5 to 5 uM measured for 48 hrs by Western blot analysis; type: functional, cell-based; settings: dose 2.5-5 µM
HCT-116 [6] = assay: Antitumor activity against human HCT-116 cells xenografted in nude mouse model assessed as reduction in FAT1 expression in tumor tissue at 3 to 4 mg/kg, iv administered for 23 days by IHC analysis; type: functional, organism-based; settings: dose 3-4 mg/kg, time 23.0 day
[7] = molecular target: T1, Nuclear factor NF-kappa-B complex (Homo sapiens) (UniProt Q00653+P19838+Q04206); assay: Inhibition of TNFalpha induced-NFkB phosphorylation in human HCT-116 cells at 1 to 5 uM pretreated for 24 hrs followed by TNFalpha induction and measured after 24 hrs by Western blot analysis; type: cell-based; settings: dose 1-5 µM, time 48.0 hrs
T1 sequence (P19838 whole entry, looked up): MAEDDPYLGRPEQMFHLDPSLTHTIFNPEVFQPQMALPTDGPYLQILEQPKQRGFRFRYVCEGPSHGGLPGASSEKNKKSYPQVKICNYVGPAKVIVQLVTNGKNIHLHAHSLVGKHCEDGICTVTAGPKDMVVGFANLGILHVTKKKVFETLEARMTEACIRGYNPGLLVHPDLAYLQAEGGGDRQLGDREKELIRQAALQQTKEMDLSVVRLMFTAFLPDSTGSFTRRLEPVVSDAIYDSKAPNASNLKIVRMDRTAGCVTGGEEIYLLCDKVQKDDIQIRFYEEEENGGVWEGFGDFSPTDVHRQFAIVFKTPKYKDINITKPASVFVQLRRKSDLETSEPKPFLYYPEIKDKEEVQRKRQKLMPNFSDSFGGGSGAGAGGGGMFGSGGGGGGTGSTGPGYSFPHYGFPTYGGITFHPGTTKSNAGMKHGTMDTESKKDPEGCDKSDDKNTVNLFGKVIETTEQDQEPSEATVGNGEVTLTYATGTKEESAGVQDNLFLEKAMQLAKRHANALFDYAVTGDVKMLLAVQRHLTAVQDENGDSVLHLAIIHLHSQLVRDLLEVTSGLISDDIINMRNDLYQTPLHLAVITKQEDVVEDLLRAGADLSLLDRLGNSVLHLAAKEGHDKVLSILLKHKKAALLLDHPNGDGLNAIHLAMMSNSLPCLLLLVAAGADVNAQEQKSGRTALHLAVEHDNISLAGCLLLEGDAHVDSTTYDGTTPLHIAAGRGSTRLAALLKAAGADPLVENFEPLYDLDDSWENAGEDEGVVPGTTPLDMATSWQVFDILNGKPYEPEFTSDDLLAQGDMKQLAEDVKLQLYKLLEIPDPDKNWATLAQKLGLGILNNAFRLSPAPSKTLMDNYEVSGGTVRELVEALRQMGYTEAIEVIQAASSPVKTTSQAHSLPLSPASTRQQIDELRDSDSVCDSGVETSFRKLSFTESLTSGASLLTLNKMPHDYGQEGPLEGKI
T1 sequence (Q00653 whole entry, looked up): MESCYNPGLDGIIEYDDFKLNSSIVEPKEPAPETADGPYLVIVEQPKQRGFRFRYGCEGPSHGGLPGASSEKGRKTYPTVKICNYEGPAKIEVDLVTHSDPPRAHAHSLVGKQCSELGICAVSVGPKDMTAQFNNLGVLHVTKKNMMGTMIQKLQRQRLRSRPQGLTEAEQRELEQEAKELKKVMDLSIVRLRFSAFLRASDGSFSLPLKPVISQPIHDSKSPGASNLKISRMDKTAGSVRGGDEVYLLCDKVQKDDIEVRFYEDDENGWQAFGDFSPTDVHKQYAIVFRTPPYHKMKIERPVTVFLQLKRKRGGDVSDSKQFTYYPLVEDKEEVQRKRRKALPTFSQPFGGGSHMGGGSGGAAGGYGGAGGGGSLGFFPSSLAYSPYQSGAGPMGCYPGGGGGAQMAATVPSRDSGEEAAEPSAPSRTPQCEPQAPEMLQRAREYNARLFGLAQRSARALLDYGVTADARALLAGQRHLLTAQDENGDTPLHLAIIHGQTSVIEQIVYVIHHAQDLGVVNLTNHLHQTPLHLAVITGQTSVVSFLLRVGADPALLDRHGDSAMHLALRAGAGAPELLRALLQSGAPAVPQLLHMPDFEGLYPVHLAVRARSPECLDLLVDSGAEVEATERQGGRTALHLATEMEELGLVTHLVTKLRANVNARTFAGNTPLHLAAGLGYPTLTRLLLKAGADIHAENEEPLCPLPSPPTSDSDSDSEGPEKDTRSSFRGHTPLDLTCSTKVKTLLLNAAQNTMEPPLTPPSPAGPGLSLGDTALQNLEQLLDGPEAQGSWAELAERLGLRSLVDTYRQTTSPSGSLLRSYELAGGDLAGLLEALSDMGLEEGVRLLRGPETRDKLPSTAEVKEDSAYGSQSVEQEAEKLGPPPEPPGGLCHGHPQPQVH
T1 sequence (Q04206 whole entry, looked up): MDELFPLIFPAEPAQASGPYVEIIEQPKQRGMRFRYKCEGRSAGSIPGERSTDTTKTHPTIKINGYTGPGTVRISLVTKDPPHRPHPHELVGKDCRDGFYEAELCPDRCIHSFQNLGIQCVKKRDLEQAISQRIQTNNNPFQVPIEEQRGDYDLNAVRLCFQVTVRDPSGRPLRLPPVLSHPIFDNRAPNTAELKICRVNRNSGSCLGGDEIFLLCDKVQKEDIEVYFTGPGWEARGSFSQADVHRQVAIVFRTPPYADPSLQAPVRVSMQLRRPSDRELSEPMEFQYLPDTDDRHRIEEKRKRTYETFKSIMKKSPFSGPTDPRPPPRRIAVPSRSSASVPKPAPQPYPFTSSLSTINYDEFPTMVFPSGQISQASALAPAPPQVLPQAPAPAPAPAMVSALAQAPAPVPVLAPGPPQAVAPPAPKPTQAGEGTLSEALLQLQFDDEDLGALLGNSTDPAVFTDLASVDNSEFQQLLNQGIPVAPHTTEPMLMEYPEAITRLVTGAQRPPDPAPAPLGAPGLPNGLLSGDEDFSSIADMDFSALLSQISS

[8] = Antiproliferative activity against human HS27 cells assessed as reduction in cell viability measured after 48 hrs by MTT assay; type: toxicity, cell-based
HCT-116 [9] = assay: Induction of cell cycle arrest in human HCT-116 cells assessed as upregulation of p21 mRNA expression at 2.5 to 5 uM measured after 24 hrs by qRT-PCR analysis; type: functional, cell-based; settings: dose 2.5-5 µM
HCT-116 [10] = assay: Antitumor activity against human HCT-116 cells xenografted in nude mouse assessed as decrease in tumor volume at 3 to 4 mg/kg, iv measured for 23 days; type: functional, organism-based; settings: dose 3-4 mg/kg, time 23.0 day
HCT-116 [11] = assay: Induction of cell cycle arrest in human HCT-116 cells assessed as accumulation of cells at G2 phase at 2.5 to 5 uM measured after 48 hrs by PI staining based flow cytometry method; type: functional; settings: dose 2.5-5 µM
[12] = Toxicity in nude mouse xenografted with human HCT-116 cells assessed as change in plasma CK level at 3 to 4 mg/kg, iv measured for 23 days; type: organism-based; settings: in vivo, 552 h, dose 3-4 mg/kg, time 23 day
[13] = Antiproliferative activity against human PBMC cells assessed as reduction in cell viability measured after 48 hrs by MTT assay; type: toxicity, cell-based
HCT-116 [14] = assay: Downregulation of FAT1 mRNA expression in human HCT-116 cells at 2.5 to 5 uM measured after 24 hrs by qRT-PCR analysis; type: functional, cell-based; settings: dose 2.5-5 µM
HCT-116 [15] = assay: Induction of cell cycle arrest in human HCT-116 cells assessed as upregulation of p53 mRNA expression at 2.5 to 5 uM measured after 24 hrs by qRT-PCR analysis; type: functional, cell-based; settings: dose 2.5-5 µM
HT-29 = assay: Antiproliferative activity against human HT-29 cells assessed as reduction in cell viability measured after 48 hrs by MTT assay; type: functional, cell-based; settings: HT-29, 48 h
HCT-116 [16] = assay: Antitumor activity against human HCT-116 cells xenografted in nude mouse assessed as decrease in tumor volume at 4 mg/kg, iv measured at day 9; type: functional, organism-based; settings: time 9.0 day
HCT-116 [17] = assay: Induction of cell cycle arrest in human HCT-116 cells assessed as upregulation of 14-3-3sigma mRNA expression at 2.5 to 5 uM measured after 24 hrs by qRT-PCR analysis; type: functional, cell-based; settings: dose 2.5-5 µM
HCT-116 [18] = assay: Antiproliferative activity against human HCT-116 cells assessed as reduction in cell viability measured after 48 hrs by BrdU staining based assay; type: functional; settings: HCT-116, 48 h
HCT-116 [19] = assay: Downregulation of FAT1 protein expression in human HCT-116 cells measured at 24 to 48 hrs by Western blot analysis; type: functional, cell-based; settings: dose 0.5-5 µM, time 24-48 hrs
SW480 = assay: Antiproliferative activity against human SW480 cells assessed as reduction in cell viability measured after 48 hrs by MTT assay; type: functional, cell-based; settings: SW480, 48 h
[20] = Toxicity in nude mouse xenografted with human HCT-116 cells assessed as change in plasma AST level at 3 to 4 mg/kg, iv measured for 23 days; type: organism-based; settings: in vivo, 552 h, dose 3-4 mg/kg, time 23 day
[21] = Toxicity in nude mouse xenografted with human HCT-116 cells assessed as body weight loss at 3 to 4 mg/kg, iv measured for 23 days; type: organism-based; settings: in vivo, 552 h, dose 3-4 mg/kg, time 23 day
[22] = molecular target: T1, Nuclear factor NF-kappa-B complex (Homo sapiens); assay: Inhibition of TNFalpha induced-NFkB phosphorylation in human HCT-116 cells at 5 uM pretreated for 24 hrs followed by TNFalpha induction and measured after 24 hrs by Western blot analysis; type: cell-based; settings: time 48.0 hrs
HCT-116 [23] = assay: Antitumor activity against human HCT-116 cells xenografted in iv dosed nude mouse model assessed as increase in apoptosis in tumor tissue measured for 23 days by TUNEL staining based analysis; type: functional, organism-based; settings: dose 3-4 mg/kg, time 23.0 day
[24] = Toxicity in nude mouse xenografted with human HCT-116 cells assessed as change in plasma LDH level at 3 to 4 mg/kg, iv measured for 23 days; type: organism-based; settings: in vivo, 552 h, dose 3-4 mg/kg, time 23 day
HCT-116 [25] = assay: Induction of apoptosis in human HCT-116 cells at 5 uM measured for 48 hrs by annexin V/PI staining based analysis; type: functional, cell-based
HCT-116 [26] = assay: Induction of apoptosis in human HCT-116 cells assessed as decrease in Bcl2 mRNA expression at 5 uM measured for 48 hrs by qRT-PCR analysis; type: functional, cell-based
HCT-116 [27] = assay: Antitumor activity against human HCT-116 cells xenografted in nude mouse assessed as reduction in tumor weight at 3 to 4 mg/kg, iv measured for 23 days; type: functional, organism-based; settings: dose 3-4 mg/kg, time 23.0 day
HCT-116 [28] = assay: Upregulation of SERPINE1 mRNA expression in human HCT-116 cells at 2.5 to 5 uM measured after 24 hrs by qRT-PCR analysis; type: functional, cell-based; settings: dose 2.5-5 µM
HCT-116 [29] = assay: Induction of G2/M phase cell cycle arrest in human HCT-116 cells assessed as decrease in cyclin A2 protein expression at 2.5 to 5 uM measured for 48 hrs by Western blot analysis; type: functional, cell-based; settings: dose 2.5-5 µM
HCT-116 [30] = assay: Downregulation of PDCD4 mRNA expression in human HCT-116 cells by qRT-PCR analysis; type: functional, cell-based; settings: dose 1-5 µM
HCT-116 [31] = assay: Antiproliferative activity against human HCT-116 cells assessed as reduction in cell viability measured after 48 hrs by MTT assay; type: functional, cell-based; settings: HCT-116, 48 h
HCT-116 [32] = assay: Antitumor activity against human HCT-116 cells xenografted in nude mouse model assessed as reduction in Ki67 expression in tumor tissue at 3 to 4 mg/kg, iv administered for 23 days by […] analysis; type: functional, organism-based; settings: dose 3-4 mg/kg, time 23.0 day
[33] = Toxicity in nude mouse xenografted with human HCT-116 cells assessed as effect on body weight at 3 to 4 mg/kg, iv measured for 23 days; type: organism-based; settings: in vivo, 552 h, dose 3-4 mg/kg, time 23 day
HCT-116 [34] = assay: Induction of cell cycle arrest in human HCT-116 cells assessed as upregulation of p53 protein expression at 2.5 to 5 uM measured for 48 hrs by Western blot analysis; type: functional, cell-based; settings: dose 2.5-5 µM
HCT-116 [35] = assay: Induction of G2/M phase cell cycle arrest in human HCT-116 cells assessed as decrease in cyclin A2 mRNA expression at 2.5 to 5 uM measured after 24 hrs by qRT-PCR analysis; type: functional, cell-based; settings: dose 2.5-5 µM
HCT-116 [36] = assay: Antitumor activity against human HCT-116 cells xenografted in iv dosed nude mouse assessed as decrease in tumor volume measured for 23 days; type: functional, organism-based; settings: dose 3-4 mg/kg, time 23.0 day

inhibition [7]: inactive | IC50 (HT-29): 11.6 µM | IC50 (HCT-116 [18]): 1.53 µM | IC50 (SW480): 22.2 µM | inhibition [22]: Active | IC50 (HCT-116 [31]): 4.37 µM
Compound: C=C(C)[C@H]1CC[C@@](C)(O)[C@@H](C2=C(O)[C@@](C)(CC=C(C)C)C(=O)C(C(=O)C(C)C)=C2O)C1
Activity (HCT-116 [1]): Active | Activity (HCT-116 [2]): Active | Activity [3]: Non-Toxic | Activity (HCT-116 [4]): Active | Activity (HCT-116 [5]): Active | Activity (HCT-116 [6]): Active | IC50 at 48 h [8]: > 100 µM | Activity (HCT-116 [9]): Active | Activity (HCT-116 [10]): Active | Activity (HCT-116 [11]): Active | Activity [12]: Non-Toxic | IC50 at 48 h [13]: > 100 µM | Activity (HCT-116 [14]): Active | Activity (HCT-116 [15]): Active | Activity (HCT-116 [16]): Active | Activity (HCT-116 [17]): Active | Activity (HCT-116 [19]): Dose-Dependent Effect | Activity [20]: Non-Toxic | Activity [21]: Non-Toxic | Activity (HCT-116 [23]): Dose-Dependent Effect | Activity [24]: Non-Toxic | Activity (HCT-116 [25]): Active | Activity (HCT-116 [26]): Active | Activity (HCT-116 [27]): Active | Activity (HCT-116 [28]): Active | Activity (HCT-116 [29]): Active | Activity (HCT-116 [30]): Dose-Dependent Effect | Activity (HCT-116 [32]): Active | Activity [33]: Non-Toxic | Activity (HCT-116 [34]): Active | Activity (HCT-116 [35]): Active | Activity (HCT-116 [36]): Dose-Dependent Effect
